Measurements from patent publication US11246876B2, “Anti-cancer effects of JAK2 inhibitors in combination with thalidomide derivatives and glucocorticoids” (OncoTracker, Inc., priority 2014, dated 2022).

Assays:
LAGκ-1A tumors = test: LAGκ-1A human multiple myeloma xenograft in SCID mice; assay type: in vivo; details: ruxolitinib 1.5 mg/kg i.p. twice daily, dexamethasone 1 mg/kg i.p. once daily, lenalidomide 15 mg/kg oral gavage once daily
Experimental: (§1) The combination of the JAK2 inhibitor ruxolitinib with lenalidomide and dexamethasone was tested on human multiple myeloma tumors in vivo. The anti-multiple myeloma effects of ruxolitinib were evaluated with mice bearing either LAGκ-1A (bortezomib- and melphalan-sensitive) or LAGκ-2 (bortezomib- and melphalan-resistant) tumors, both of which were originally derived from bone marrow biopsies from multiple myeloma patients. These tumors closely resemble human multiple myeloma and have been passaged through multiple generations of mice with consistent growth and chemoresistance patterns.
Following intramuscular implantation of LAGκ-1A tumor tissue, mice underwent treatment with vehicle control, ruxolitinib, dexamethasone, lenalidomide, ruxolitinib and dexamethasone, ruxolitinib and lenalidomide, dexamethasone and lenalidomide, or ruxolitinib with lenalidomide and dexamethasone (see FIG. 8A). Ruxolitinib was administered via injection at 1.5 mg/kg i.p., twice daily; dexamethasone was administered at 1 mg/kg i.p., once daily, and lenalidomide was administered via oral gavage at 15 mg/kg, once daily. When ruxolitinib, lenalidomide, or dexamethasone was administered individually, LAGκ-1A tumor growth was not inhibited compared to control.
(§2) Six- to 8-week-old male severe combined immunodeficient (SCID) mice were obtained from the Jackson Laboratory (Bar Harbor, Me., USA) and maintained in a specific pathogen-free area in our animal resources facility. Human myeloma tumors (LAGκ-1A or LAGκ-2) which have been maintained in our laboratory for many years were excised from an anaesthetized tumor containing donor mouse, sectioned into 20-40 mm3 pieces, and surgically implanted into the left superficial gluteal muscle of the anaesthetized naive SCID mice. Recipient mice received weekly injections of anti-asialo GM1 rabbit serum (Wako Bioproducts, Richmond, Va., USA) to further suppress immune activity and allow growth of the human tumor. All animal studies were conducted according to protocols approved by the Institutional Animal Care and Use Committee. […]

LAGκ-2 tumors = test: LAGκ-2 human multiple myeloma xenograft in SCID mice; assay type: in vivo; details: dosing as for LAGκ-1A (dexamethasone 1.5 mg/kg for LAGκ-2)
Experimental: as §1
In another experiment, mice received an intramuscular implantation of LAGκ-2 tumor tissue, and then underwent treatment with vehicle control, ruxolitinib, dexamethasone, lenalidomide, ruxolitinib and dexamethasone, ruxolitinib and lenalidomide, dexamethasone and lenalidomide, or ruxolitinib with lenalidomide and dexamethasone, as described above (see FIG. 8B). Similar to the effects on LAGκ-1A tumors, when ruxolitinib, lenalidomide, or dexamethasone was administered individually, LAGκ-2 tumor growth was not inhibited compared to control.
as §2, with “Committee. Animals were anaesthetized with ketamine, xylazine, and isoflurane prior to surgery and were euthanized when tumors reached 2 cm in diameter.” for “Committee.”

Structure (SMILES)	LAGκ-1A tumor growth compared to control (LAGκ-1A tumors)	LAGκ-2 tumor growth compared to control (LAGκ-2 tumors)
N#CC[C@H](C1CCCC1)n1cc(-c2ncnc3[nH]ccc23)cn1 [ruxolitinib]	not inhibited	not inhibited
Nc1cccc2c1CN(C1CCC(=O)NC1=O)C2=O (stereo not drawn) [lenalidomide]	not inhibited	not inhibited
C[C@@H]1C[C@H]2[C@@H]3CCC4=CC(=O)C=C[C@]4(C)[C@@]3(F)[C@@H](O)C[C@]2(C)[C@@]1(O)C(=O)CO [dexamethasone]	not inhibited	not inhibited
